{"source": "patent US8287889B2", "about": "(Wuhan Liyuanheng Pharmaceutical Technology Ltd., priority 2002, dated 2012)", "key": {"[1]": {"tested_on": "liver cancer cell (Hep-G2)", "assay": "In vitro inhibition of liver cancer cell, time course", "assay_type": "cell-based", "description": "(§1) The relation between administering period and curable effect was intensely observed. That is to say, the inhibiting rate would be recorded according to different administering time of the medicine, such as 2, 3, 4 days administration. It is discovered that administered raw medicine of low concentration, such as 0.1 μg, 0.5 μg, 2 μg/ml, had weak inhibiting effects towards three different cancer cells. As the administering period is extended, the inhibiting effect would gradually be strengthened. […] The extension of administering period could not promptly increase the inhibiting effect. […] In short, for HT-29, A549, and Hep-G2, the maximum inhibiting effect occurred mostly at the fourth administering day, therefore illustrating a better slow-release effect of such medicine."}, "lung cancer cell (A549)": {"tested_on": "lung cancer cell (A549)", "assay": "In vitro inhibition of lung cancer cell, time course", "assay_type": "cell-based", "description": "as §1"}, "Kunming mice": {"tested_on": "Kunming mice", "settings": "10 mice", "description": "The mice were provided by Medical school of Tongji University and with a batch No. 19-052.\nCommonly, the lethality of the mice was regarded as positive index. After the death mice of each group were recorded and calculated and a LD50 value was calculated according to the Bliss statistical method."}, "[2]": {"tested_on": "intestinal cancer cell (HT-29)", "assay": "In vitro inhibition of intestinal cancer cell, time course", "assay_type": "cell-based", "description": "as §1"}, "[3]": {"settings": "administering dosage 2250, intravenous"}, "[4]": {"settings": "administering dosage 3713, intravenous"}, "[5]": {"settings": "administering dosage 6126, intravenous"}, "[6]": {"settings": "administering dosage 10108, intravenous"}, "[7]": {"settings": "administering dosage 16678, intravenous"}}, "note": "Like-named read-outs stand apart in the source and are kept apart here.", "data": [{"molecule": "C[C@H]1[C@H](C)CC[C@]2(C(=O)O)CC[C@]3(C)C(=CC[C@@H]4[C@@]5(C)CC[C@H](O)C(C)(C)[C@@H]5CC[C@]43C)[C@H]12", "note": "[Ursolic Acid for Injection, ursolic acid]", "values": [{"measurement": "peak inhibiting effect", "setting": "[1]; Hep-G2, 10, 50 μg/ml, third day of administration", "value": 95, "unit": "%"}, {"measurement": "inhibiting effect", "setting": "[1]; Hep-G2, high concentration 10, 50 μg/ml", "value": "strong"}, {"measurement": "inhibiting effect", "setting": "[1]; Hep-G2, low concentration 0.1 μg, 0.5 μg, 2 μg/ml", "value": "weak"}, {"measurement": "peak inhibiting effect", "setting": "lung cancer cell (A549); A549, 10, 50 μg/ml, third day of administration", "value": 95, "unit": "%"}, {"measurement": "inhibiting effect", "setting": "lung cancer cell (A549); A549, high concentration 10, 50 μg/ml", "value": "strong"}, {"measurement": "inhibiting effect", "setting": "lung cancer cell (A549); A549, low concentration 0.1 μg, 0.5 μg, 2 μg/ml", "value": "weak"}, {"measurement": "Death number (r)", "setting": "Kunming mice; [3]", "value": 0}, {"measurement": "Lethal rate(%)", "setting": "Kunming mice; [3]", "value": 0, "unit": "%"}, {"measurement": "Probability unit (y)", "setting": "Kunming mice; [3]", "value": 0}, {"measurement": "Death number (r)", "setting": "Kunming mice; [4]", "value": 1}, {"measurement": "Lethal rate(%)", "setting": "Kunming mice; [4]", "value": 10, "unit": "%"}, {"measurement": "Probability unit (y)", "setting": "Kunming mice; [4]", "value": 3.72}, {"measurement": "Death number (r)", "setting": "Kunming mice; [5]", "value": 3}, {"measurement": "Lethal rate(%)", "setting": "Kunming mice; [5]", "value": 30, "unit": "%"}, {"measurement": "Probability unit (y)", "setting": "Kunming mice; [5]", "value": 4.48}, {"measurement": "Death number (r)", "setting": "Kunming mice; [6]", "value": 6}, {"measurement": "Lethal rate(%)", "setting": "Kunming mice; [6]", "value": 60, "unit": "%"}, {"measurement": "Probability unit (y)", "setting": "Kunming mice; [6]", "value": 5.25}, {"measurement": "Death number (r)", "setting": "Kunming mice; [7]", "value": 10}, {"measurement": "Lethal rate(%)", "setting": "Kunming mice; [7]", "value": 100, "unit": "%"}, {"measurement": "peak inhibiting effect", "setting": "[2]; HT-29, 10, 50 μg/ml, third day of administration", "value": 95, "unit": "%"}, {"measurement": "inhibiting effect", "setting": "[2]; HT-29, high concentration 10, 50 μg/ml", "value": "strong"}, {"measurement": "inhibiting effect", "setting": "[2]; HT-29, low concentration 0.1 μg, 0.5 μg, 2 μg/ml", "value": "weak"}]}]}
